From patent US20240199692A1 (priority 2019, published 2024)
*1 amine or outer side, *2 acyl side, *3 side chain or, on linkers, in order; H or OH if unused. Where a SMILES comes first, the peptide text is derived from it. [ ]: non-standard residue; d: D form. The star is where a group is joined. Phenylsulfonyl(4-anisamido) = COc1ccc(C(=O)Nc2ccc(S(=O)(=O)*)cc2)cc1; Benzoyl(4-(4-EtNHCO-PhO)) = CCNC(=O)c1ccc(Oc2ccc(C(=O)*)cc2)cc1; Benzoyl(4-O-C6H4-4-CONHMe) = CNC(=O)c1ccc(Oc2ccc(C(=O)*)cc2)cc1; Benzoyl(4-OPh(4-CONH2)) = NC(=O)c1ccc(Oc2ccc(C(=O)*)cc2)cc1; X1 = O=C(Nc1ccc(S(=O)(=O)*)cc1)c1ccc(OC(F)(F)F)cc1; X4 = NC(=O)CCCCNC(=O)c1ccc(Oc2ccc(C(=O)*)cc2)cc1; X16 = O=C(O)CCNC(=O)c1ccc(Oc2ccc(C(=O)*)cc2)cc1; X3 = O=C(Nc1ccc(S(=O)(=O)*)cc1)c1ccc(OC2CC2)cc1; X12 = O=S(=O)(c1ccc(-c2cn(-c3ccccc3)nn2)cc1)*; X10 = NC(=O)c1ccc(-c2ccc(S(=O)(=O)*)cc2)cc1; X6 = NCCCCNC(=O)c1ccc(Oc2ccc(C(=O)*)cc2)cc1; Benzoyl(4-OPh) = O=C(c1ccc(Oc2ccccc2)cc1)*; X9 = O=C(NCCCO)c1ccc(Oc2ccc(C(=O)*)cc2)cc1; d(γGlu) = O=C(O)[C@@H](CCC(=O)[*:2])N[*:1]; d(βAsp) = O=C(O)[C@@H](CC(=O)[*:2])N[*:1]; NMeI = CC[C@H](C)[C@H](NC)C(=O)O; NMeE = CN[C@@H](CCC(=O)O)C(=O)O; NMeN = CN[C@@H](CC(N)=O)C(=O)O; NMeK = CN[C@@H](CCCCN)C(=O)O; NMeV = CN[C@H](C(=O)O)C(C)C; β3hP = O=C(O)C[C@@H]1CCCN1; NMeA = CN[C@@H](C)C(=O)O; Orn = NCCC[C@H](N)C(=O)O; Aze = O=C(O)[C@@H]1CCN1; Dab = NCC[C@H](N)C(=O)O; X18 = NC(=O)[C@H](N)CN*; Dap = NC[C@H](N)C(=O)O; Aib = CC(C)(N)C(=O)O; Ahx = NCCCCCC(=O)O; Ava = NCCCCC(=O)O; GABA = NCCCC(=O)O

These molecules were tested against T1, MMP2 (Homo sapiens, UniProt P08253) (assay: Inhibitory effects on human MMP2 (Method 1), enzyme assay with MOCAc-Pro-Leu-Gly-Leu-A2pr(Dnp)-Ala-Arg-NH2 substrate, 96-well). Details: Test Example No. 1-1 (Method 1, 96-well microplate); read-out: Human MMP2, IC50.
T1 sequence (P08253 110-660): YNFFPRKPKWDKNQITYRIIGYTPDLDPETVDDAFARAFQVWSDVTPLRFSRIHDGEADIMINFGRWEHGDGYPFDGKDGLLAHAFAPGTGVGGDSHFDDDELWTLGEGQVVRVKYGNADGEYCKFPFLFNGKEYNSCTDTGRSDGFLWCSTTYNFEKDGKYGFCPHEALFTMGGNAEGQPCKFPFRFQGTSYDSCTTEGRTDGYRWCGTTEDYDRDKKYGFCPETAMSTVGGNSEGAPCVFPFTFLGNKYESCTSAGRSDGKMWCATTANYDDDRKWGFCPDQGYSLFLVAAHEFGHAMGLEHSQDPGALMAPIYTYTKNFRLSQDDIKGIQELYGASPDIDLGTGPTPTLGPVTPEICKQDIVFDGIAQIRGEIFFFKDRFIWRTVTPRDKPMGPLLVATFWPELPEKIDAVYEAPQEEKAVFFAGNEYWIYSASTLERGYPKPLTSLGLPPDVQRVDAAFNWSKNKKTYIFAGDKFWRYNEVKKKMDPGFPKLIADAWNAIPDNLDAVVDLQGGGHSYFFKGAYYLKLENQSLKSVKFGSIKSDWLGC
Assay type: biochemical
Description: In a reaction solution [50 mmol/L Tris-HCl (pH 7.5), 150 mmol/L NaCl, 10 mmol/L CaCl2, 0.05% Brij L23], 100 μg/mL human recombinant MMP2 enzyme and 1 mmol/L 4-Aminophenylmercuric acetate were mixed together, and reacted at 37° C. for 60 minutes. The human MMP2 activated through the reaction was poured into a 96-well microplate to reach a final concentration of 0.7 or 7 ng/mL.

| Compound | IC50 [nM] |
| --- | --- |
| CC[C@H](C)[C@@H](C(=O)N1CCC[C@H]1CC(N)=O)N(C)C(=O)[C@H](CC(C)C)NC(=O)[C@H](CN)NC(=O)[C@H](CC(=O)O)NC(=O)[C@@H]1CCN1C(=O)CCCNC(=O)c1ccc(Oc2ccccc2)cc1 [Compound 132] ({Benzoyl(4-OPh)-GABA}-[Aze]D[Dap]L[NMeI][β3hP]-NH2; N-terminus assumed) | 0.43 |
| CC(C)C[C@H](NC(=O)[C@H](CCN)NC(=O)[C@H](CC(=O)O)NC(=O)[C@H](CCC(=O)O)NC(=O)CCCCNC(=O)c1ccc(Oc2ccc(C(=O)NCCCCC(N)=O)cc2)cc1)C(=O)N(C)[C@@H](CCC(=O)O)C(=O)N1CCC[C@H]1CC(N)=O [Compound 199] ({X4-Ava}-ED[Dab]L[NMeE][β3hP]-NH2; N-terminus assumed) | 1.4 |
| CC[C@H](C)[C@@H](C(=O)N1CCC[C@H]1C(N)=O)N(C)C(=O)[C@H](CC(C)C)NC(=O)[C@H](C)NC(=O)[C@H](CC(=O)O)NC(=O)[C@H](CCCCN)N(C)C(=O)CCCNC(=O)c1ccc(Oc2ccccc2)cc1 [Compound 127] ({Benzoyl(4-OPh)-GABA}-[NMeK]DAL[NMeI]P-NH2; N-terminus assumed) | 0.24 |
| CC(C)C[C@H](NC(=O)[C@H](CCN)NC(=O)[C@H](CC(=O)O)NC(=O)[C@H](CC(N)=O)NC(=O)CCCCNC(=O)c1ccc(Oc2ccc(C(=O)NCCC(=O)O)cc2)cc1)C(=O)N(C)[C@@H](CCC(=O)O)C(=O)N1CCC[C@H]1CC(N)=O [Compound 183] ({X16-Ava}-ND[Dab]L[NMeE][β3hP]-NH2; N-terminus assumed) | 7 |
| CC(C)C[C@H](NC(=O)[C@H](CCN)NC(=O)[C@H](CC(=O)O)NC(=O)[C@H](CC(N)=O)NC(=O)CCCCNC(=O)c1ccc(Oc2ccc(C(=O)NCCCCN)cc2)cc1)C(=O)N(C)[C@@H](CCC(=O)O)C(=O)N1CCC[C@H]1CC(N)=O [Compound 181] ({X6-Ava}-ND[Dab]L[NMeE][β3hP]-NH2; N-terminus assumed) | 3.1 |
| CC(C)C[C@H](NC(=O)[C@H](CCN)NC(=O)[C@H](CC(=O)O)NC(=O)[C@H](CCC(=O)O)NC(=O)CCCNC(=O)c1ccc(Oc2ccccc2)cc1)C(=O)N(C)[C@@H](CCC(=O)O)C(=O)N1CCC[C@H]1CC(N)=O [Compound 144] ({Benzoyl(4-OPh)-GABA}-ED[Dab]L[NMeE][β3hP]-NH2; N-terminus assumed) | 0.26 |
| COc1ccc(C(=O)Nc2ccc(S(=O)(=O)N[C@H](CCC(=O)N[C@@H](CCN)C(=O)N[C@@H](CC(C)C)C(=O)N(C)[C@@H](CCC(=O)O)C(=O)N3CCC[C@H]3CC(N)=O)C(=O)O)cc2)cc1 [Compound 697] ({Phenylsulfonyl(4-anisamido)-d(γGlu)}-[Dab]L[NMeE][β3hP]-NH2; N-terminus assumed) | 0.28 |
| CC(C)C[C@H](NC(=O)[C@H](CCN)NC(=O)CC[C@@H](NS(=O)(=O)c1ccc(NC(=O)c2ccc(OC(F)(F)F)cc2)cc1)C(=O)O)C(=O)N(C)[C@@H](CCC(=O)O)C(=O)N1CCC[C@H]1CC(N)=O [Compound 704] ({X1-d(γGlu)}-[Dab]L[NMeE][β3hP]-NH2; N-terminus assumed) | 0.42 |
| CC[C@H](C)[C@@H](C(=O)NC(C)(C)C(N)=O)N(C)C(=O)[C@H](CC(C)C)NC(=O)[C@H](C)NC(=O)[C@H](CC(=O)O)NC(=O)[C@H](C)N(C)C(=O)CCCNC(=O)c1ccc(Oc2ccccc2)cc1 [Compound 96] ({Benzoyl(4-OPh)-GABA}-[NMeA]DAL[NMeI][Aib]-NH2) | 0.74 |
| CC(C)C[C@H](NC(=O)[C@H](CCN)NC(=O)[C@H](CC(=O)O)NC(=O)[C@H](CC(N)=O)N(C)C(=O)CCCNC(=O)c1ccc(Oc2ccccc2)cc1)C(=O)N(C)[C@@H](CCC(=O)O)C(=O)N1CCC[C@H]1CC(N)=O [Compound 112] ({Benzoyl(4-OPh)-GABA}-[NMeN]D[Dab]L[NMeE][β3hP]-NH2; N-terminus assumed) | 0.55 |
| CC(C)C[C@H](NC(=O)[C@H](CCN)NC(=O)CC[C@@H](NS(=O)(=O)c1ccc(NC(=O)c2ccc(OC3CC3)cc2)cc1)C(=O)O)C(=O)N(C)[C@@H](CCC(=O)O)C(=O)N1CCC[C@H]1CC(N)=O [Compound 703] ({X3-d(γGlu)}-[Dab]L[NMeE][β3hP]-NH2; N-terminus assumed) | 0.33 |
| CCNC(=O)c1ccc(Oc2ccc(C(=O)NCCCCC(=O)N[C@@H](CCCCN)C(=O)N[C@@H](CC(=O)O)C(=O)N[C@@H](CCN)C(=O)N[C@@H](CC(C)C)C(=O)N(C)[C@@H](CCC(=O)O)C(=O)N3CCC[C@H]3CC(N)=O)cc2)cc1 [Compound 192] ({Benzoyl(4-(4-EtNHCO-PhO))-Ava}-KD[Dab]L[NMeE][β3hP]-NH2; N-terminus assumed) | 1.9 |
| CCNC(=O)c1ccc(Oc2ccc(C(=O)NCCCCCC(=O)N[C@@H](CCCCN)C(=O)N[C@@H](CC(=O)O)C(=O)N[C@@H](CCN)C(=O)N[C@@H](CC(C)C)C(=O)N(C)[C@@H](CCC(=O)O)C(=O)N3CCC[C@H]3CC(N)=O)cc2)cc1 [Compound 194] ({Benzoyl(4-(4-EtNHCO-PhO))-Ahx}-KD[Dab]L[NMeE][β3hP]-NH2; N-terminus assumed) | 3.7 |
| CC(C)C[C@H](NC(=O)[C@H](CCN)NC(=O)[C@H](CC(=O)O)NC(=O)[C@H](CC(N)=O)NC(=O)CCCCNC(=O)c1ccc(Oc2ccc(C(=O)NCCCO)cc2)cc1)C(=O)N(C)[C@@H](CCC(=O)O)C(=O)N1CCC[C@H]1CC(N)=O [Compound 182] ({X9-Ava}-ND[Dab]L[NMeE][β3hP]-NH2; N-terminus assumed) | 0.49 |
| CNC(=O)c1ccc(Oc2ccc(C(=O)NCCCC(=O)N[C@@H](CC(N)=O)C(=O)N[C@@H](CC(=O)O)C(=O)N[C@@H](C)C(=O)N[C@@H](CC(C)C)C(=O)N[C@@H](CCSC)C(=O)N3CCC[C@H]3C(N)=O)cc2)cc1 [Compound 177, N^2-(4-{4-[4-(methylcarbamoyl)phenoxy]benzamido}butanoyl)-L-asparaginyl-L-α-aspartyl-L-alanyl-L-leucyl-L-methionyl-L-prolinamide] ({Benzoyl(4-O-C6H4-4-CONHMe)-GABA}-NDALMP-NH2) | 0.21 |
| CC[C@H](C)[C@@H](C(=O)N1CCC[C@H]1CC(N)=O)N(C)C(=O)[C@H](CC(C)C)NC(=O)[C@H](CCN)NC(=O)[C@H](CC(=O)O)NC(=O)[C@H](CCC(=O)O)NC(=O)CCCCNC(=O)c1ccc(Oc2ccc(C(=O)NCCCCC(N)=O)cc2)cc1 [Compound 201] ({X4-Ava}-ED[Dab]L[NMeI][β3hP]-NH2; N-terminus assumed) | 1.4 |
| CC[C@H](C)[C@@H](C(=O)N1CCC[C@H]1CC(N)=O)N(C)C(=O)[C@H](CC(C)C)NC(=O)[C@H](CCN)NC(=O)CC[C@@H](NS(=O)(=O)c1ccc(-c2cn(-c3ccccc3)nn2)cc1)C(=O)O [Compound 608, N-[(2S)-4-amino-1-({(2S)-1-[{(2S,3S)-1-[(2S)-2-(2-amino-2-oxoethyl)pyrrolidin-1-yl]-3-methyl-1-oxopentan-2-yl}(methyl)amino]-4-methyl-1-oxopentan-2-yl}amino)-1-oxobutan-2-yl]-N^2-[4-(1-phenyl-1H-1,2,3-triazol-4-yl)benzene-1-sulfonyl]-D-glutamine] ({X12-d(γGlu)}-[Dab]L[NMeI][β3hP]-NH2) | 0.34 |
| CC[C@H](C)[C@@H](C(=O)N1CCC[C@H]1CC(N)=O)N(C)C(=O)[C@H](CC(C)C)NC(=O)[C@H](CCN)NC(=O)[C@H](CC(=O)O)NC(=O)[C@@H]1CCN1C(=O)CCCNC(=O)c1ccc(Oc2ccccc2)cc1 [Compound 133] ({Benzoyl(4-OPh)-GABA}-[Aze]D[Dab]L[NMeI][β3hP]-NH2; N-terminus assumed) | 0.88 |
| CNC(=O)c1ccc(Oc2ccc(C(=O)NCCCCCC(=O)N[C@@H](CCCNC(=N)N)C(=O)N[C@@H](CC(=O)O)C(=O)N[C@@H](CCN)C(=O)N[C@@H](CC(C)C)C(=O)N(C)[C@@H](CCC(=O)O)C(=O)N3CCC[C@H]3CC(N)=O)cc2)cc1 [Compound 190] ({Benzoyl(4-O-C6H4-4-CONHMe)-Ahx}-RD[Dab]L[NMeE][β3hP]-NH2; N-terminus assumed) | 1.8 |
| CC(C)C[C@H](NC(=O)[C@H](CCN)NC(=O)[C@H](CC(=O)O)NC(=O)[C@H](CCC(N)=O)NC(=O)[C@@H](N)CCCNC(=O)c1ccc(Oc2ccc(C(N)=O)cc2)cc1)C(=O)N(C)[C@H](C(=O)NC[C@@H](N)C(N)=O)C(C)C [Compound 536] (H-[Orn](Benzoyl(4-OPh(4-CONH2)))QD[Dab]L[NMeV]-X18) | 0.35 |
| CC[C@H](C)[C@@H](C(=O)N1CCC[C@H]1CC(N)=O)N(C)C(=O)[C@H](CC(C)C)NC(=O)[C@H](C)NC(=O)C[C@@H](NS(=O)(=O)c1ccc(-c2ccc(C(N)=O)cc2)cc1)C(=O)O [Compound 635] ({X10-d(βAsp)}-AL[NMeI][β3hP]-NH2; N-terminus assumed) | 0.83 |
